Inconclusive results are not listed. The source made the active and inactive calls. How the calls were made is not given here.

Sequence of Serine/threonine-protein kinase D1 (Homo sapiens) (Q15139 whole entry, looked up): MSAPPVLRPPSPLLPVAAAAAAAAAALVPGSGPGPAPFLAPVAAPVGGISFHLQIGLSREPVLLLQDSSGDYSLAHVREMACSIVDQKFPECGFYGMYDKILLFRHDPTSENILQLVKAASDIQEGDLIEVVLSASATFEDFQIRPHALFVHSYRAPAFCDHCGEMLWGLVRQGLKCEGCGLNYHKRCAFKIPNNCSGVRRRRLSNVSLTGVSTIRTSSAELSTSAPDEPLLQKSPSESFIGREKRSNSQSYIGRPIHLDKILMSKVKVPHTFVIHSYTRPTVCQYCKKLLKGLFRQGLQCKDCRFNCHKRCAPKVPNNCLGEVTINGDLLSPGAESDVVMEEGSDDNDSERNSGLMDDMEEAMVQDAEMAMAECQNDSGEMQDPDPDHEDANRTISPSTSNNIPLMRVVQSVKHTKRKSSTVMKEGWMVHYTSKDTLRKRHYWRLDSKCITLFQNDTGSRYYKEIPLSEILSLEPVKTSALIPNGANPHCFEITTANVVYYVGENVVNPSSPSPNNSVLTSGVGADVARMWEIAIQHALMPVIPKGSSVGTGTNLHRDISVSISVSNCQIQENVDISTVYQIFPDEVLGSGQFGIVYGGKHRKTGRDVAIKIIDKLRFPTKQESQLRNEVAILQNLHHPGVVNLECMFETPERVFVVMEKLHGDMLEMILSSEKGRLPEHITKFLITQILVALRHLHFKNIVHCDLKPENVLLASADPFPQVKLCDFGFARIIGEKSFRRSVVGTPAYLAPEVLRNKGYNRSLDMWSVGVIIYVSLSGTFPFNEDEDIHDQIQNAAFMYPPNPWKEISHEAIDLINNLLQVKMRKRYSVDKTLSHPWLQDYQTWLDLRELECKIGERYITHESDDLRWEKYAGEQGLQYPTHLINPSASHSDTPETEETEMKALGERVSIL

The experiment addresses Serine/threonine-protein kinase D1 (Homo sapiens) (UniProt Q15139). Briefly: inhibitors of human PKD1 kinase, confirmation, biochemical, fluorescence polarization, 140K library hits, repeat (AID 1286). Conditions: at 10 µM, active compounds read high. On the technique in general: Fluorescence polarisation rises when a labelled molecule tumbles more slowly, as on binding a larger partner.
The inhibition is the relative decrease from the control value, in per cent. Consider `COc1cc2c(cc1OC)-c1c(OC)c(OC)c(OC)c3ccnc(c13)C2=O`, for which the inhibition is 10.4% (inactive).
With `CN1CCN(c2cccc3c2C(=O)c2ccccc2C3=O)CC1`, the inhibition is 34.4% (inactive).
For `NC(=NCCc1c[nH]c2ccccc12)NS(=O)(=O)c1cc(F)ccc1F`, the inhibition is 2.31% (inactive).
`Cc1c(C(=O)N/N=C/c2ccc(O)c(Br)c2)sc(N)c1C#N`: the inhibition was 44.5% (inactive).
Regarding `NC(N)=NC(=O)c1nc(Cl)c(N)nc1N`, the inhibition is 58.6%.
Consider `Cn1c(=O)oc2cc(S(=O)(=O)N3CCN(Cc4ccc5c(c4)OCO5)CC3)ccc21`, for which the inhibition is -1.91% (inactive).
Take `CN(C)CCOc1ccc2c(c1)Sc1ccccc1CC2=O`: the inhibition was 8.37% (inactive).
As for `CC(=O)Nc1ccc2c(c1)c1ccccc1n2C(C)=O`, the inhibition was 14.5% (inactive).
For `CC(OC(=O)c1ccc(NS(=O)(=O)c2cccs2)cc1)C(=O)N(C)C1CCCCC1` (stereo unspecified), the inhibition was -4.35% (inactive).
The same measure for `COc1ccccc1/C=C1\SC(=S)N(CCC(=O)NC2=NCCS2)C1=O`: -0.701% (inactive); for `Cc1ccc(C(=O)NNC2=Nc3cccc4cccc2c34)cc1`: 6.45% (inactive).
With `O=C1CC(N2CCN(c3ccccc3Cl)CC2)C(=O)N1c1ccc(F)cc1` (stereo unspecified), the inhibition is -3.22% (inactive).
Regarding `Cc1c(C(=O)NCc2cccnc2)sc2nc(-c3ccc(F)cc3)cn12`, the inhibition was -3.04% (inactive).
Consider `O=C(Nc1ccccc1Cl)ON=C1c2ccccc2-c2ccccc21`, for which the inhibition was 14.4% (inactive).
Consider `O=C1c2ccccc2-c2onc3ccc(NCc4ccco4)c1c23`, for which the inhibition is 32.1% (inactive).
As for `CC(C)CCN1CN(S(=O)(=O)c2cccs2)c2nc3ccccc3nc21`, the inhibition was -0.214% (inactive).
Turning to `CCOC(=O)c1cccc(NC(=O)CCS(=O)(=O)c2cccc3nsnc23)c1`, the inhibition is 28.8% (inactive).
For the compound `CC1CCCC(C)N1C(=O)Cn1cc(/C=C2/C(=O)Nc3ccccc32)c2ccccc21` (stereo unspecified), the inhibition was 2.88% (inactive).
Regarding `C=CCn1c(SC(C)C(=O)NCc2ccc3c(c2)OCO3)nnc1C1CCCCC1` (stereo unspecified), the inhibition is -1.58% (inactive).
In the case of `COc1ccc(S(=O)(=O)N2CCC(n3cnc4cc(C(F)(F)F)ccc43)CC2)cc1`, the inhibition is 20.8% (inactive).
Regarding `CCOC(=O)N1CCC(N2CCN(S(=O)(=O)CC)CC2)CC1`, the inhibition was -3.7% (inactive).
On to `CCOC(=O)N1CCN(c2cc(NCCC(=O)O)c3c4c(onc24)-c2ccccc2C3=O)CC1`, for which the inhibition is 3.06% (inactive).
For `O=C(Nc1ccccc1)ON=C1c2ccccc2-c2ccccc21`, the inhibition is 17.2% (inactive).
On to `COC(=O)c1cccc2c1-c1ccccc1/C2=N/O`, for which the inhibition is 19.8% (inactive).
The same measure for `Cc1cc(N=CC2=C(O)CC(C)(C)CC2=O)no1`: -1.85% (inactive).
Regarding `CN1CCN(c2ccccc2NC(=O)c2ccc(-c3cccc([N+](=O)[O-])c3)o2)CC1`, the inhibition was 7.36% (inactive).
On to `Cc1c(N/N=C(\C#N)C(=O)c2ccc(Cl)cc2)c(=O)n(-c2ccccc2)n1C`, for which the inhibition was 18% (inactive).
Consider `Cc1occc1C(=O)NC(C)CCc1ccccc1` (stereo unspecified), for which the inhibition was -0.529% (inactive).
Consider `O=C1Nc2ccccc2/C1=C/c1cnc[nH]1`, for which the inhibition is 28.3% (inactive).
Consider `O=C1NCCCc2c1oc1ccc(O)cc21`, for which the inhibition is 96.2%.
The same measure for `O=C(Nc1ccsc1C(=O)NC1CC1)c1ccccc1`: 9.43% (inactive); for `CCCCn1c(=O)[nH]c2nc3cc(N)ccc3nc2c1=O`: 31.1% (inactive).
In the case of `O=C(Nc1cccc([N+](=O)[O-])c1)C12CC3CC(C1)CC(n1cnc([N+](=O)[O-])n1)(C3)C2`, the inhibition is -4.73% (inactive).
In the case of `Cc1ccc(C(=O)Cn2c(NCCO)nc3ccccc32)cc1`, the inhibition was -5.32% (inactive).
Consider `Clc1cncc(Cl)c1N/N=C/c1ccncc1`, for which the inhibition is 77.4%.
`CS(=O)(=O)N1CCN(c2ccc(NC(=O)c3ccc(Br)o3)cc2)CC1`: the inhibition is -7.85% (inactive).
Turning to `Cc1[nH]nc2c1-c1nc3ccccc3nc1C(C)(C)C2`, the inhibition was 40% (inactive).
For `Cn1c(=O)[nH]c(=O)c2c1nc(NC1CCCCC1)n2CC(=O)NC1CCCCC1`, the inhibition was -11.5% (inactive).
The same measure for `CCn1c(CSc2ncccn2)nnc1SCC(=O)N1CCc2ccccc21`: -1.28% (inactive); for `CCOc1cccc(C2C(C(=O)c3ccc(C)o3)=C(O)C(=O)N2c2nccs2)c1` (stereo unspecified): 73.4%; for `Cc1ccc(NC(=O)C2CCCN(S(=O)(=O)c3c(C)noc3C)C2)c(C)c1` (stereo unspecified): -2.05% (inactive).
`Cc1c(N/N=C(\C#N)C(=O)c2ccccc2)c(=O)n(-c2ccccc2)n1C`: the inhibition is 12.8% (inactive).
Take `O=C(NCCOC(=O)c1ccc(C(=O)OCCNC(=O)c2cccnc2)s1)c1cccnc1`: the inhibition was -5.26% (inactive).
Regarding `Nc1nc2ccccc2n1/N=C/c1ccc([N+](=O)[O-])s1`, the inhibition is 34.7% (inactive).
Take `COCC(C)n1c(C)cc(C(=O)COC(=O)c2nc3nc(C)cc(C)n3n2)c1C` (stereo unspecified): the inhibition was -2.8% (inactive).
The same measure for `O=C(c1cc(-c2ccccc2)nc2ccccc12)N1CCN(c2ccccn2)CC1`: 0.468% (inactive).
Consider `Cc1ccc(NC(=O)CNc2ccc(Cl)cc2F)cc1`, for which the inhibition is 0.85% (inactive).
Consider `CCCNC(=O)CN(c1ccc(F)cc1)S(=O)(=O)c1ccc2c(c1)OCCO2`, for which the inhibition was -8.66% (inactive).
Turning to `Nc1nc2ccc([N+](=O)[O-])c(N)c2s1`, the inhibition is 69.9%.
`COc1ccc(C2C(C(=O)c3cccs3)=C(O)C(=O)N2c2nncs2)cc1` (stereo unspecified): the inhibition was 35.1% (inactive).
Take `Cc1cc(NCCCN)nc(-c2ccccc2O)n1`: the inhibition was 59.5%.
On to `Clc1ccc(Nc2ccc(-n3ccnc3)nn2)cc1Cl`, for which the inhibition was -1.8% (inactive).
For `COc1ccccc1C(=O)NN1C(=O)C2C3C=CC(O3)C2C1=O` (stereo unspecified), the inhibition was -0.477% (inactive).
The same measure for `COc1cc(C2=NOC(C(=O)NCc3ccco3)C2)cc(OC)c1OC` (stereo unspecified): -3.78% (inactive).
Turning to `COc1ccc(Nc2cc(C)nc(-n3nc(C)cc3C)n2)cc1`, the inhibition was 3.67% (inactive).
As for `COc1ccc(-c2cnnc(N/N=C/c3ccc(O)c(O)c3)n2)cc1`, the inhibition was 3.96% (inactive).
For the compound `CCC(=O)Nc1c2c(nn1-c1ccccc1C)CSC2`, the inhibition was 58.1%.
Regarding `Nc1nc2ccccc2n1/N=C/c1cccnc1`, the inhibition was 36.4% (inactive).
For the compound `O=C(Nc1ccc(Cl)cc1)OCc1cn(-c2ccc(Cl)cc2)nn1`, the inhibition is -2.52% (inactive).
For `O=C(CN1CCCC1)Nc1c2c(nc3ccccc13)N(Cc1ccccc1)CC2`, the inhibition was -4.44% (inactive).
As to `Cn1c(OCc2cccnc2)nc2c1c(=O)n(Cc1ccc(Br)cc1)c(=O)n2C`, the inhibition was -0.468% (inactive).
In the case of `COc1ccc2nc3sc(C(=O)NCCCN4CCc5ccccc5C4)cc3cc2c1`, the inhibition is 7.3% (inactive).
The same measure for `CCC1=NNc2cccc3c(OC)ccc1c23`: 89.7%.
The same measure for `O=C(Nc1ccc(CN2CCOCC2)cc1)c1ccc(-c2cccc(Cl)c2)o1`: 52.6%; for `O=C(O)C1CCN(c2ncccn2)CC1`: -5.12% (inactive); for `Cc1nn(C)c(C)c1N1C(=O)c2cccc3c(N)ccc(c23)C1=O`: 46.3% (inactive).
With `CN(C)c1ccc(/C=C2\SC(=S)N(Nc3ncc(C(F)(F)F)cc3Cl)C2=O)cc1`, the inhibition is 4.05% (inactive).
For `Cn1c(=O)c(NCCO)c2c3c(cccc31)C(=O)c1ccccc1-2`, the inhibition is 95.8%.
The same measure for `COC(=O)c1ccccc1OCC(=O)NC1CCCCC1`: -3.26% (inactive); for `NC(=O)c1cn(C2OC(CO)C(O)C2O)c2ncnc(N)c12` (stereo unspecified): 90.3%.
`CCN(CC)c1ccc(NC(=O)COc2ccccc2C#N)cc1S(=O)(=O)Nc1ccc(OC)cc1`: the inhibition was -2.22% (inactive).
In the case of `Nc1nnc(SCCCC(=O)c2ccc(F)cc2)s1`, the inhibition was 26.1% (inactive).
For the compound `Cc1cc(Nc2cccc(F)c2)nc(NCc2ccccc2)n1`, the inhibition was 1.99% (inactive).
The same measure for `O=C1CCCc2c1cc(C(=O)NCc1ccco1)c(=O)n2-c1ccccc1`: -5.46% (inactive); for `Cc1cc2nc3c(=O)n(C4CCCCC4)c(=O)[nH]c3nc2cc1N`: 21.6% (inactive); for `CCOC(=O)N1CCC(NS(=O)(=O)c2cc(Br)cc3c2N(C(=O)CC)CC3)CC1`: -5.57% (inactive).
For the compound `CC(=O)Oc1cc(OC(C)=O)c2c(C)cc(=O)oc2c1`, the inhibition is 68.1%.
For the compound `CS(=O)(=O)N1CCN(c2ccccc2NC(=O)c2ccc(Br)o2)CC1`, the inhibition was 96.2%.
With `CCOC(=O)c1[nH]c2cc(OC)c(OC)cc2c1NC(=O)CN1CCN(C)CC1`, the inhibition is 3.12% (inactive).
On to `O=C1CC(N2CCN(c3ccccc3Cl)CC2)C(=O)N1c1cccc(F)c1` (stereo unspecified), for which the inhibition is -6.73% (inactive).
Consider `c1ccc(-c2n[nH]c3ccccc23)cc1`, for which the inhibition was 11.3% (inactive).

For the origin of these results see PubChem BioAssay AID1286 (University of Pittsburgh Molecular Library Screening Center, 2008).
